# Assays:
# Format in all cases: functional
# [1] = test system: Bacillus cereus; experiment: Antibacterial activity against Bacillus cereus ATCC 11778 after 24 hrs by microdilution broth method; settings: ATCC 11778, 24 h
# [2] = test system: Escherichia coli; experiment: Antibacterial activity against Escherichia coli ATCC 25922 after 24 hrs by microdilution broth method; settings: ATCC 25922, 24 h
# [3] = test system: Pseudomonas aeruginosa; experiment: Antibacterial activity against Pseudomonas aeruginosa ATCC 27853 after 24 hrs by microdilution broth method; settings: ATCC 27853, 24 h
# [4] = test system: Staphylococcus aureus; experiment: Antibacterial activity against Staphylococcus aureus ATCC 25923 after 24 hrs by microdilution broth method; settings: ATCC 25923, 24 h
SMILES,MIC [1],MIC [2],MIC [3],MIC [4],MBC [1],MBC [2],MBC [3],MBC [4]
COc1ccc(C(=O)/C=C/c2ccccc2O)c(O)c1CC=C(C)C,2000 µg/mL,2000 µg/mL,2000 µg/mL,2000 µg/mL,2000 µg/mL,2000 µg/mL,2000 µg/mL,> 2000 µg/mL
COc1cc(OC)c(C(=O)CCc2ccc3c(c2)OCO3)cc1OC,2000 µg/mL,2000 µg/mL,2000 µg/mL,2000 µg/mL,2000 µg/mL,2000 µg/mL,2000 µg/mL,2000 µg/mL
COc1ccc(/C=C/C(=O)c2ccc(OC)c(CC=C(C)C)c2O)cc1,2000 µg/mL,2000 µg/mL,2000 µg/mL,2000 µg/mL,2000 µg/mL,> 2000 µg/mL,2000 µg/mL,2000 µg/mL
COc1cc(OC)c(OC)cc1/C=C/C(=O)c1cc(OC)c(OC)cc1OC,> 2000 µg/mL,> 2000 µg/mL,2000 µg/mL,> 2000 µg/mL,> 2000 µg/mL,> 2000 µg/mL,2000 µg/mL,> 2000 µg/mL
COc1ccc(/C=C/C(=O)c2c(OC)cc(OC)c(OC)c2OC(C)=O)cc1,2000 µg/mL,1000 µg/mL,1000 µg/mL,2000 µg/mL,> 2000 µg/mL,> 2000 µg/mL,2000 µg/mL,> 2000 µg/mL
COc1cc(OC)c(OC)cc1/C=C/C(=O)c1ccc(OC)c(OC)c1,2000 µg/mL,1000 µg/mL,2000 µg/mL,2000 µg/mL,> 2000 µg/mL,> 2000 µg/mL,> 2000 µg/mL,> 2000 µg/mL
COc1cc(OC)c(C(=O)/C=C/c2ccc3c(c2)OCO3)c(OC)c1OC,2000 µg/mL,2000 µg/mL,2000 µg/mL,> 2000 µg/mL,> 2000 µg/mL,2000 µg/mL,2000 µg/mL,> 2000 µg/mL
COc1ccc(C(=O)/C=C/c2c(OC)cc(OC)c(OC)c2OC)cc1OC,2000 µg/mL,2000 µg/mL,2000 µg/mL,2000 µg/mL,2000 µg/mL,> 2000 µg/mL,> 2000 µg/mL,> 2000 µg/mL

# The remaining compounds from weak to strong by MIC [1], led by results:
MIC [1],MIC [2],MIC [3],MIC [4],SMILES,MBC [1],MBC [2],MBC [3],MBC [4]
2000 µg/mL,1000 µg/mL,1000 µg/mL,2000 µg/mL,COc1ccc(C(=O)/C=C/c2ccc(O)cc2)cc1,2000 µg/mL,2000 µg/mL,2000 µg/mL,2000 µg/mL
1000 µg/mL,2000 µg/mL,2000 µg/mL,2000 µg/mL,COc1ccc(C(=O)/C=C/c2cccc(O)c2)c(O)c1CC=C(C)C,1000 µg/mL,2000 µg/mL,2000 µg/mL,2000 µg/mL
1000 µg/mL,2000 µg/mL,2000 µg/mL,2000 µg/mL,CC(C)=CCOc1ccc(C(=O)/C=C/c2ccc(O)cc2)c(O)c1,1000 µg/mL,> 2000 µg/mL,2000 µg/mL,2000 µg/mL
1000 µg/mL,2000 µg/mL,1000 µg/mL,2000 µg/mL,COc1ccc(/C=C/C(=O)c2cc(OC)c(OC)cc2O)cc1,> 2000 µg/mL,> 2000 µg/mL,> 2000 µg/mL,> 2000 µg/mL
500 µg/mL,2000 µg/mL,1000 µg/mL,500 µg/mL,O=C(CCc1ccccc1O)c1ccccc1,500 µg/mL,2000 µg/mL,2000 µg/mL,500 µg/mL
15.6 µg/mL,1000 µg/mL,1000 µg/mL,31.2 µg/mL,CC(C)=CCC/C(C)=C\Cc1c(O)ccc(C(=O)/C=C/c2ccc(O)cc2)c1O,15.6 µg/mL,2000 µg/mL,2000 µg/mL,31.2 µg/mL
3.9 µg/mL,2000 µg/mL,2000 µg/mL,7.8 µg/mL,COc1ccc(C(=O)/C=C/c2ccc(O)cc2)c(O)c1CC=C(C)C,3.9 µg/mL,2000 µg/mL,2000 µg/mL,7.8 µg/mL

# — ChEMBL document CHEMBL1151685, “Structure-activity relationship of antibacterial chalcones” (2008)
